Source: publication PMC13266999, “Designing Antibiotics with Inherent Resistance to Efflux as a Strategy to Revive Discovery against Multidrug-Resistant Pathogens” (Journal of Medicinal Chemistry, 2026)
Several values for one entry are separate records, joined by “and”; a condition that tells them apart may be missing. Identical values can stand only once.

What was measured:
Assay in all cases: SafetyScreen44
5-HT transporter (h) = molecular target: T1, 5-HT transporter (h) (Homo sapiens, UniProt P31645); details: antagonist radioligand, specific binding, 1.0E-05 M
T1 construct: purchased Eurofins (SafetyScreen44)
Procedure: (§1) Off-target pharmacology was evaluated using the Eurofins SafetyScreen44 in vitro panel. […] Binding assays were performed using radioligand displacement, and enzyme or uptake assays measured inhibition of control activity using validated detection methods (scintillation counting, fluorimetry or photometry). Responses were expressed as percent inhibition of control binding or activity. Based on Eurofins interpretation guidelines, effects ≥50% were considered significant, effects between 25% and 50% weak to moderate, and effects <25% were not considered biologically relevant.

5-HT1A (h) = molecular target: T2, 5-HT1A (h) (Homo sapiens, UniProt P08908); details: agonist radioligand, specific binding, 1.0E-05 M
T2 construct: purchased Eurofins (SafetyScreen44)
Procedure: as §1

5-HT1B = molecular target: T3, 5-HT1B (Rattus norvegicus, UniProt P28564); details: antagonist radioligand, specific binding, 1.0E-05 M
T3 construct: purchased Eurofins (SafetyScreen44)
Procedure: as §1

5-HT2A (h) = molecular target: T4, 5-HT2A (h) (Homo sapiens, UniProt P28223); details: agonist radioligand, specific binding, 1.0E-05 M
T4 construct: purchased Eurofins (SafetyScreen44)
Procedure: as §1

5-HT2B (h) = molecular target: T5, 5-HT2B (h) (Homo sapiens, UniProt P41595); details: agonist radioligand, specific binding, 1.0E-05 M
T5 construct: purchased Eurofins (SafetyScreen44)
Procedure: as §1

5-HT3 (h) = molecular target: T6, 5-HT3 (h) (Homo sapiens, UniProt P46098); details: antagonist radioligand, specific binding, 1.0E-05 M
T6 construct: purchased Eurofins (SafetyScreen44)
Procedure: as §1

A2A (h) = molecular target: T7, A2A (h) (Homo sapiens, UniProt P29274); details: agonist radioligand, specific binding, 1.0E-05 M
T7 construct: purchased Eurofins (SafetyScreen44)
Procedure: as §1

BZD (central) = details: agonist radioligand, specific binding, 1.0E-05 M
Procedure: as §1

CB1 (h) = molecular target: T8, CB1 (h) (Homo sapiens, UniProt P21554); details: agonist radioligand, specific binding, 1.0E-05 M
T8 construct: purchased Eurofins (SafetyScreen44 panel) assay 36
Procedure: as §1

CB2 (h) = molecular target: T9, CB2 (h) (Homo sapiens, UniProt P34972); details: agonist radioligand, specific binding, 1.0E-05 M
T9 construct: purchased Eurofins (SafetyScreen44)
Procedure: as §1

CCK1 (CCKA) (h) = molecular target: T10, CCK1 (CCKA) (h) (Homo sapiens, UniProt P32238); details: agonist radioligand, specific binding, 1.0E-05 M
T10 construct: purchased Eurofins (SafetyScreen44)
Procedure: as §1

[1] = test system: Ca2+ channel (L, dihydropyridine site); details: antagonist radioligand, specific binding, 1.0E-05 M
Procedure: as §1

D1 (h) = molecular target: T11, D1 (h) (Homo sapiens, UniProt P21728); details: antagonist radioligand, specific binding, 1.0E-05 M
T11 construct: purchased Eurofins (SafetyScreen44)
Procedure: as §1

D2S (h) = molecular target: T12, D2S (h) (Homo sapiens, UniProt P14416); details: agonist radioligand, specific binding, 1.0E-05 M
T12 construct: purchased Eurofins (SafetyScreen44)
Procedure: as §1

ETA (h) = molecular target: T13, ETA (h) (Homo sapiens, UniProt P25101); details: agonist radioligand, specific binding, 1.0E-05 M
T13 construct: purchased Eurofins (SafetyScreen44)
Procedure: as §1

GR (h) = molecular target: T14, GR (h) (Homo sapiens, UniProt P04150); details: agonist radioligand, specific binding, 1.0E-05 M
T14 construct: purchased Eurofins (SafetyScreen44)
Procedure: as §1

H1 (h) = molecular target: T15, H1 (h) (Homo sapiens, UniProt P35367); details: antagonist radioligand, specific binding, 1.0E-05 M
T15 construct: purchased Eurofins (SafetyScreen44)
Procedure: as §1

H2 (h) = molecular target: T16, H2 (h) (Homo sapiens, UniProt P25021); details: antagonist radioligand, specific binding, 1.0E-05 M
T16 construct: purchased Eurofins (SafetyScreen44)
Procedure: as §1

M1 (h) = molecular target: T17, M1 (h) (Homo sapiens, UniProt P11229); details: antagonist radioligand, specific binding, 1.0E-05 M
T17 construct: purchased Eurofins (SafetyScreen44)
Procedure: as §1

M2 (h) = molecular target: T18, M2 (h) (Homo sapiens, UniProt P08172); details: antagonist radioligand, specific binding, 1.0E-05 M
T18 construct: purchased Eurofins (SafetyScreen44)
Procedure: as §1

M3 (h) = molecular target: T19, M3 (h) (Homo sapiens, UniProt P20309); details: antagonist radioligand, specific binding, 1.0E-05 M
T19 construct: purchased Eurofins (SafetyScreen44)
Procedure: as §1

MAO-A = molecular target: T20, MAO-A (Rattus norvegicus, UniProt P21396); details: antagonist radioligand, specific binding, 1.0E-05 M
T20 construct: purchased Eurofins (SafetyScreen44)
Procedure: as §1

[2] = molecular target: T21, N neuronal alpha 4beta 2 (h) (Homo sapiens, UniProt P17787+P43681); details: agonist radioligand, specific binding, 1.0E-05 M
T21 construct: purchased Eurofins (SafetyScreen44)
Procedure: as §1

NMDA = details: antagonist radioligand, specific binding, 1.0E-05 M
Procedure: as §1

Na+ channel (site 2) = details: antagonist radioligand, specific binding, 1.0E-05 M
Procedure: as §1

[3] = molecular target: T22, Potassium Channel hERG (human) (Homo sapiens, UniProt Q12809); details: [3H] Dofetilide, specific binding, 1.0E-05 M
T22 construct: purchased Eurofins (SafetyScreen44)
Procedure: as §1

V1a (h) = molecular target: T23, V1a (h) (Homo sapiens, UniProt P37288); details: agonist radioligand, specific binding, 1.0E-05 M
T23 construct: purchased Eurofins (SafetyScreen44)
Procedure: as §1

alpha 1A (h) = molecular target: T24, alpha 1A (h) (Homo sapiens, UniProt P35348); details: antagonist radioligand, specific binding, 1.0E-05 M
T24 construct: purchased Eurofins (SafetyScreen44)
Procedure: as §1

alpha 2A (h) = molecular target: T25, alpha 2A (h) (Homo sapiens, UniProt P08913); details: antagonist radioligand, specific binding, 1.0E-05 M
T25 construct: purchased Eurofins (SafetyScreen44)
Procedure: as §1

beta 1 (h) = molecular target: T26, beta 1 (h) (Homo sapiens, UniProt P08588); details: agonist radioligand, specific binding, 1.0E-05 M
T26 construct: purchased Eurofins (SafetyScreen44)
Procedure: as §1

beta 2 (h) = molecular target: T27, beta 2 (h) (Homo sapiens, UniProt P07550); details: antagonist radioligand, specific binding, 1.0E-05 M
T27 construct: purchased Eurofins (SafetyScreen44)
Procedure: as §1

delta (DOP) (h) = molecular target: T28, delta (DOP) (h) (Homo sapiens, UniProt P41143); details: agonist radioligand, specific binding, 1.0E-05 M
T28 construct: purchased Eurofins (SafetyScreen44)
Procedure: as §1

dopamine transporter (h) = molecular target: T29, dopamine transporter (h) (Homo sapiens, UniProt Q01959); details: antagonist radioligand, specific binding, 1.0E-05 M
T29 construct: purchased Eurofins (SafetyScreen44)
Procedure: as §1

kappa (KOP) = molecular target: T30, kappa (KOP) (Rattus norvegicus, UniProt P34975); details: agonist radioligand, specific binding, 1.0E-05 M
T30 construct: purchased Eurofins (SafetyScreen44)
Procedure: as §1

mu (MOP) (h) = molecular target: T31, mu (MOP) (h) (Homo sapiens, UniProt P35372); details: agonist radioligand, specific binding, 1.0E-05 M
T31 construct: purchased Eurofins (SafetyScreen44)
Procedure: as §1

[4] = molecular target: T32, norepinephrine transporter (h) (Homo sapiens, UniProt P23975); details: antagonist radioligand, specific binding, 1.0E-05 M
T32 construct: purchased Eurofins (SafetyScreen44)
Procedure: as §1

T7 sequence (P29274 whole entry): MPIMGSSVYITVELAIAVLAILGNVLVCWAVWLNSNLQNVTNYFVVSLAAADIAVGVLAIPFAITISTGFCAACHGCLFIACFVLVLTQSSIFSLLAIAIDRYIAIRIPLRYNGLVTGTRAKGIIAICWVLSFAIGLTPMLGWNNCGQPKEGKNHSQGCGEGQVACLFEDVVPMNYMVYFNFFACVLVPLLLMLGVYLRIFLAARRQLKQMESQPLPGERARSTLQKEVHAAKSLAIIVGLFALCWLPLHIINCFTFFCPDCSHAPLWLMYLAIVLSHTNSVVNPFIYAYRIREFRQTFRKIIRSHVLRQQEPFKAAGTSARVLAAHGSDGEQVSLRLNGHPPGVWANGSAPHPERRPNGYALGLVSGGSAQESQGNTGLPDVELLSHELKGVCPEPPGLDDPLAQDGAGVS
T30 sequence (P34975 whole entry): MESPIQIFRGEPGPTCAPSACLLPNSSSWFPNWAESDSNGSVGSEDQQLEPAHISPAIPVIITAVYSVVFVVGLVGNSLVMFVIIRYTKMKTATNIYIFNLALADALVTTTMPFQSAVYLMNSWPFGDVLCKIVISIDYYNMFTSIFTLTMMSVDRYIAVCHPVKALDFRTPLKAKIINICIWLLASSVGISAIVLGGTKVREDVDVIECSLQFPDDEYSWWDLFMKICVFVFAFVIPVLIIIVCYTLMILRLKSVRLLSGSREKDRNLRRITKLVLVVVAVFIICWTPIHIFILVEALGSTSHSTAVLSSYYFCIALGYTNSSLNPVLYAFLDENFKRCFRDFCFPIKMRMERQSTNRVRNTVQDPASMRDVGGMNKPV
T4 sequence (P28223 whole entry): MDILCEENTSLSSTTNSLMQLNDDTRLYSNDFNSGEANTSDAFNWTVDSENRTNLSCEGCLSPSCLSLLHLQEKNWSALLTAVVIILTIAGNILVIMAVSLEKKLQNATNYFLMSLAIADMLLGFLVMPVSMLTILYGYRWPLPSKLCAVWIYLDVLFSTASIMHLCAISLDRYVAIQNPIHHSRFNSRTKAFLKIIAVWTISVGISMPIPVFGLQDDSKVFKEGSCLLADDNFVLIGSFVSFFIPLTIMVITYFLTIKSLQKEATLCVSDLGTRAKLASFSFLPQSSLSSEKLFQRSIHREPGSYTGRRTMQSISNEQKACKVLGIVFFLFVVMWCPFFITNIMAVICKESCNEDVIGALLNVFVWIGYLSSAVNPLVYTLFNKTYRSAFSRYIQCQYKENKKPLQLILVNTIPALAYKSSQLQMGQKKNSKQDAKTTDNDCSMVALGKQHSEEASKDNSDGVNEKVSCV
T17 sequence (P11229 whole entry): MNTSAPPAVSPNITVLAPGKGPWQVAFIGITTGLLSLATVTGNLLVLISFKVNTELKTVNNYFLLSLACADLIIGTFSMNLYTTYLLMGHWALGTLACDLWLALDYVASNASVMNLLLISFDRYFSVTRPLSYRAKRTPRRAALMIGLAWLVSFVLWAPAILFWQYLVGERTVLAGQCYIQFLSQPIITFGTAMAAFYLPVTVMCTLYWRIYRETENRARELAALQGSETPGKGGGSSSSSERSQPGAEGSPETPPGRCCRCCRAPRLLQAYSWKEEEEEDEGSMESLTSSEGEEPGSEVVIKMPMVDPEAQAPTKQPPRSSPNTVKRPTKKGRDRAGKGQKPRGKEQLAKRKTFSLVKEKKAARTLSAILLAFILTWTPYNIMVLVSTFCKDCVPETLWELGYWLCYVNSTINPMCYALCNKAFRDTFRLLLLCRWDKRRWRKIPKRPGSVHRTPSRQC
T2 sequence (P08908 whole entry): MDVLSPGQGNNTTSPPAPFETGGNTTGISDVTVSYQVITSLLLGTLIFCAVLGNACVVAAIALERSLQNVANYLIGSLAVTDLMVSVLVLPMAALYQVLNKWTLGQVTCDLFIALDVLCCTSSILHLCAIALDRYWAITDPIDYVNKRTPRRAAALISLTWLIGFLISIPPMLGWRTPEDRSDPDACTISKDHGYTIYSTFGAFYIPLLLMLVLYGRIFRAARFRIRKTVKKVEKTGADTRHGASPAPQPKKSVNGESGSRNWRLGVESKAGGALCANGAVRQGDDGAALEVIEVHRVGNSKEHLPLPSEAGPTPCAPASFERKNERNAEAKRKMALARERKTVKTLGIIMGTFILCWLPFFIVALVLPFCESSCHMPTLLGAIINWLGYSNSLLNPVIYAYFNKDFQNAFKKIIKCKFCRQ
T14 sequence (P04150 whole entry): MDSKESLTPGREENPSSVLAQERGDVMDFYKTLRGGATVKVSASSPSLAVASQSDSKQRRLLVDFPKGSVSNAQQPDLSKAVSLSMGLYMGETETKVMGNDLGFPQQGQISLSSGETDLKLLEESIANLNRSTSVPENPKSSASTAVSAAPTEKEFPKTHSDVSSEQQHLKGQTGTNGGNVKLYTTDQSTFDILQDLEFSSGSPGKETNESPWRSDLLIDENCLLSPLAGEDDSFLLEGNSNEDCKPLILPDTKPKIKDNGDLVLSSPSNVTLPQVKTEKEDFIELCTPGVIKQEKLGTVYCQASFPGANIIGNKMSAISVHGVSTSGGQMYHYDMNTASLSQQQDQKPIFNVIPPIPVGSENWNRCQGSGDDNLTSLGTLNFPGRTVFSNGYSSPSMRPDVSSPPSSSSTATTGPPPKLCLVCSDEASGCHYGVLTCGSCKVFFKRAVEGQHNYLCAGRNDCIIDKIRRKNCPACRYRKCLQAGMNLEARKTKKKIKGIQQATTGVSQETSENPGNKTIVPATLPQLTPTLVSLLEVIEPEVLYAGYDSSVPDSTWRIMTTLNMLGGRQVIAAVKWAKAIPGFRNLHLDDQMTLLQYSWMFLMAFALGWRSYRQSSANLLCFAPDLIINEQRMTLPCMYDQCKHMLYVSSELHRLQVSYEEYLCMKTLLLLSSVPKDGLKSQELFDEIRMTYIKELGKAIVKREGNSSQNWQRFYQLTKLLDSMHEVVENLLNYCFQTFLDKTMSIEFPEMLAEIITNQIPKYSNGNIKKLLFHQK
T31 sequence (P35372 whole entry): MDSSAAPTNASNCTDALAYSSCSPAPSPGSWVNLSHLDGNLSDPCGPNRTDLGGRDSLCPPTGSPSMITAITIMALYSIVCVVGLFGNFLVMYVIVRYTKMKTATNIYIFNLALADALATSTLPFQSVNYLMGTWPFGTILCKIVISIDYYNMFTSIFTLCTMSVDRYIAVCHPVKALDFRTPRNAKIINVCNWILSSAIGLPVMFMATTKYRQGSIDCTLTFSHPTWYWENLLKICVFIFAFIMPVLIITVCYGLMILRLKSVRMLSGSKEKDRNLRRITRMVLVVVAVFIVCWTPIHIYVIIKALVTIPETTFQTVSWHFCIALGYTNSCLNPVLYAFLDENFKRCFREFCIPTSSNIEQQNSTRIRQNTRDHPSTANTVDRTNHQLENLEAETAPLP
T28 sequence (P41143 whole entry): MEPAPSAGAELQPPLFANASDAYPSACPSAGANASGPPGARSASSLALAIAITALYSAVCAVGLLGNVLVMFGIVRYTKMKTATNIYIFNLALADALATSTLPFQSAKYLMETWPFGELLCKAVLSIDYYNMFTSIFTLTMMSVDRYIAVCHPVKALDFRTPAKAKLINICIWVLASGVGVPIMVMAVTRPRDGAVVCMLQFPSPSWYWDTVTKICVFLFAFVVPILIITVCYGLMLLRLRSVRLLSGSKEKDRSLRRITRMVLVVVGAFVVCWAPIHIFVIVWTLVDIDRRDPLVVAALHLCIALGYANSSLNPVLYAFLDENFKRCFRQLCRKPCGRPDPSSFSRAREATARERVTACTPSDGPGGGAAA
T5 sequence (P41595 whole entry): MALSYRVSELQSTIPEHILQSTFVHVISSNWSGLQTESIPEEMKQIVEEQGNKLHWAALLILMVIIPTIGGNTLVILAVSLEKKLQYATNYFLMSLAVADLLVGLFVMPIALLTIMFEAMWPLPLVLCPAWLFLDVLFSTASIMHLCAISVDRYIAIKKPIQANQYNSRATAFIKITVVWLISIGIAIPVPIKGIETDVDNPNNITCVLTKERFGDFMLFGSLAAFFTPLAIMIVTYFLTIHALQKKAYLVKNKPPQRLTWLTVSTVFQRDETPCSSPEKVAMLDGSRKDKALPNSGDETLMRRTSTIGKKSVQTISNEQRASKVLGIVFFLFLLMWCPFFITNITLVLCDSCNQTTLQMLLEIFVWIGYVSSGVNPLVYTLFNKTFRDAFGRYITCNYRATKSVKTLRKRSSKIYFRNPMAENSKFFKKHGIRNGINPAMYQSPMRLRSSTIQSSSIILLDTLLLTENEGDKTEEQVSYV
T18 sequence (P08172 whole entry): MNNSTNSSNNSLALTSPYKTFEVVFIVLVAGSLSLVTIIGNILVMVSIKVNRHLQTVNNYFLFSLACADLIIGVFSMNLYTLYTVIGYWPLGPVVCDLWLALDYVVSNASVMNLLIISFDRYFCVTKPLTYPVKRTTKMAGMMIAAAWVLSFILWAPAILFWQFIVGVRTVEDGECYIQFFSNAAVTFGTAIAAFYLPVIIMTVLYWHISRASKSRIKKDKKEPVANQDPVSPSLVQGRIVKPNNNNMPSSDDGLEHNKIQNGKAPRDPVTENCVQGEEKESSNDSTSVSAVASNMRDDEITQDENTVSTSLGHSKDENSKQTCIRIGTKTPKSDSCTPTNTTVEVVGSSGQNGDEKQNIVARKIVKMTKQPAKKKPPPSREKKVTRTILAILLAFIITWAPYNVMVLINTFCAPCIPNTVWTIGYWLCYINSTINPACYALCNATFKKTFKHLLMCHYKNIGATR

Structure (SMILES): C[C@H]1COc2c(N3CC[C@@H](Nc4ncccn4)C3)c(F)cc3c(=O)c(C(=O)O)cn1c23 [Compound 46, (S)-9-Fluoro-3-methyl-7-oxo-10-((R)-3-(pyrimidin-2-ylamino)pyrrolidin-1-yl)-2,3-dihydro-7H-[1,4]oxazino[2,3,4-ij]quinoline-6-carboxylic acid]
- % Inhibition (5-HT transporter (h)): -16.9663%
- % Inhibition (5-HT1A (h)): -3.77%
- % Inhibition (5-HT1B): -16.7063%
- % Inhibition (5-HT2A (h)): -8.881%
- % Inhibition (5-HT2B (h)): 5.374%
- % Inhibition (5-HT3 (h)): -4.708%
- % Inhibition (A2A (h)): 53.628% and 53.6%
- % Inhibition (BZD (central)): -44.8289%
- % Inhibition (CB1 (h)): 1.857%
- % Inhibition (CB2 (h)): 0%
- % Inhibition (CCK1 (CCKA) (h)): -2.038%
- % Inhibition [1]: 6.049%
- inhibition at 10 µM (D1 (h)): -15.4%
- inhibition at 10 µM (D2S (h)): -7.81%
- % Inhibition (ETA (h)): -5.236%
- % Inhibition (GR (h)): 3.456%
- % Inhibition (H1 (h)): 5.564%
- % Inhibition (H2 (h)): -40.1709%
- % Inhibition (M1 (h)): 3.129%
- % Inhibition (M2 (h)): 1.066%
- % Inhibition (M3 (h)): 2.273%
- % Inhibition (MAO-A): -9.13%
- inhibition at 10 µM [2]: -41.8%
- % Inhibition (NMDA): 12.6124%
- % Inhibition (Na+ channel (site 2)): 23.6539%
- % Inhibition [3]: -0.2461%
- % Inhibition (V1a (h)): -12.5662%
- inhibition at 10 µM (alpha 1A (h)): 11.5%
- inhibition at 10 µM (alpha 2A (h)): 4.48%
- % Inhibition (beta 1 (h)): 1.921%
- % Inhibition (beta 2 (h)): 11.3086%
- inhibition at 10 µM (delta (DOP) (h)): 2.16%
- % Inhibition (dopamine transporter (h)): 10.0257%
- % Inhibition (kappa (KOP)): 27.3513% and 27.4%
- % Inhibition (mu (MOP) (h)): 6.535%
- % Inhibition [4]: -6.471%

Structure (SMILES): Cc1cc(C)nc(N[C@@H]2CCN(c3c(F)cc4c(=O)c(C(=O)O)cn5c4c3OC[C@@H]5C)C2)n1 [Compound 50, (S)-10-((R)-3-((4,6-Dimethylpyrimidin-2-yl)amino)pyrrolidin-1-yl)-9-fluoro-3-methyl-7-oxo-2,3-dihydro-7H-[1,4]oxazino[2,3,4-ij]quinoline-6-carboxylic acid]
- inhibition at 10 µM (5-HT transporter (h)): 2.23%
- inhibition at 10 µM (5-HT1A (h)): -2.72%
- inhibition at 10 µM (5-HT1B): 10.2%
- inhibition at 10 µM (5-HT2A (h)): 41.5%
- inhibition at 10 µM (5-HT2B (h)): 9.78%
- inhibition at 10 µM (5-HT3 (h)): 7.02%
- % Inhibition (A2A (h)): 82.8099% and 82.8%
- % Inhibition (BZD (central)): 22.3569%
- inhibition at 10 µM (CB1 (h)): -8.28%
- inhibition at 10 µM (CB2 (h)): 0.988%
- inhibition at 10 µM (CCK1 (CCKA) (h)): -39.6%
- % Inhibition [1]: -7.1517%
- inhibition at 10 µM (D1 (h)): -5.66%
- inhibition at 10 µM (D2S (h)): -3.93%
- inhibition at 10 µM (ETA (h)): 0.266%
- inhibition at 10 µM (GR (h)): 9.19%
- inhibition at 10 µM (H1 (h)): 5.57%
- inhibition at 10 µM (H2 (h)): -9.63%
- inhibition at 10 µM (M1 (h)): 25.5%
- inhibition at 10 µM (M2 (h)): 62.8%
- inhibition at 10 µM (M3 (h)): 3.56%
- inhibition at 10 µM (MAO-A): 15%
- inhibition at 10 µM [2]: 0.422%
- % Inhibition (NMDA): -5.137%
- % Inhibition (Na+ channel (site 2)): -10.2569%
- % Inhibition [3]: -1.132%
- inhibition at 10 µM (V1a (h)): 9.53%
- inhibition at 10 µM (alpha 1A (h)): 6.96%
- inhibition at 10 µM (alpha 2A (h)): 23.5%
- inhibition at 10 µM (beta 1 (h)): 12.5%
- inhibition at 10 µM (beta 2 (h)): -4.15%
- inhibition at 10 µM (delta (DOP) (h)): 1.77%
- inhibition at 10 µM (dopamine transporter (h)): 22.6%
- inhibition at 10 µM (kappa (KOP)): 20.1%
- inhibition at 10 µM (mu (MOP) (h)): 0.499%
- inhibition at 10 µM [4]: 2.06%
